We go through eight compounds from US12077503B2, “Substituted cyclic amides and their use as herbicides” (FMC CORPORATION, priority 2015, dated 2024).

Assay in all cases: Test A postemergence
Common to all, as to format: in vivo

For test [1], the system named is Galium (catchweed bedstraw, Galium aparine). The conditions noted are these: Galium, post-emergence, 240 h; for pest or weed control at 125 g/ha: 125 g ai/ha; for pest or weed control at 500 g/ha: 500 g ai/ha, visual injury, approx. 10 d. The method in brief:
(§1)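 Preemergence directed soil spray on seeded pots, or postemergence application to plants 2–10 cm, one- to two-leaf. Solvent mixture non-phytotoxic, with surfactant. Scored ~10 d later, visually, 0–100 vs untreated.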

A further test has as its system Kochia (Kochia scoparia). Conditions: Bassia scoparia, post-emergence, 240 h; for pest or weed control at 125 g/ha: 125 g ai/ha; for pest or weed control at 500 g/ha: 500 g ai/ha, visual injury, approx. 10 d. The essentials: as §1
The subject of test [2] is blackgrass (Alopecurus myosuroides). Conditions: Alopecurus myosuroides, post-emergence, 240 h; for pest or weed control at 125 g/ha: 125 g ai/ha; for pest or weed control at 500 g/ha: 500 g ai/ha, visual injury, approx. 10 d. The essentials:
as §1

A further test deals with corn (Zea mays). Conditions: Zea mays, post-emergence, 240 h; for plant injury at 125 g/ha / Corn plant response rating (crop injury, 0 = no effect, 100 = complete kill) at 125 g/ha: 125 g ai/ha; for Corn plant response rating (crop injury, 0 = no effect, 100 = complete kill) at 500 g/ha: 500 g ai/ha, visual injury, approx. 10 d; for Corn plant response rating (crop injury, 0 = no effect, 100 = complete kill) at 500 g/ha / Corn plant response rating (crop injury, 0 = no effect, 100 = complete kill) at 125 g/ha: 0 to 100 scale (0 no effect, 100 complete control); for Corn plant response rating (crop injury, 0 = no effect, 100 = complete kill) at 125 g/ha: visual injury after approximately 10 d. The method in brief:
as §1

In test [3] the test system is ragweed (common ragweed, Ambrosia elatior). The conditions noted are these: Ambrosia artemisiifolia, post-emergence, 240 h; for pest or weed control at 125 g/ha: 125 g ai/ha; for pest or weed control at 500 g/ha: 500 g ai/ha, visual injury, approx. 10 d. The method in brief: as §1
Test [4] has as its system wheat (Triticum aestivum). The conditions noted are these: Triticum aestivum, post-emergence, 240 h; for plant injury at 125 g/ha: 125 g ai/ha; for plant injury at 500 g/ha: 500 g ai/ha, visual injury, approx. 10 d. The method in brief:
as §1

Where [5] appears, read: Postemergence, visual rating about 10 d after treatment, read-out: Galium plant response rating (0 to 100 scale).
The mark [6] stands for this setting: Postemergence, 0 to 100 scale (0 no effect, 100 complete control), read-out: Plant response rating, Galium.
[7] abbreviates: Postemergence, visual rating about 10 d after treatment, read-out: Kochia plant response rating (0 to 100 scale).
Where [8] appears, read: Postemergence, 0 to 100 scale (0 no effect, 100 complete control), read-out: Plant response rating, Kochia.
Where [9] appears, read: Postemergence, visual rating about 10 d after treatment, read-out: Blackgrass plant response rating (0 to 100 scale).
[10] abbreviates: Postemergence, 0 to 100 scale (0 no effect, 100 complete control), read-out: Plant response rating, Blackgrass.
Setting [11] is: Postemergence, visual rating about 10 d after treatment, read-out: Corn plant response rating (0 to 100 scale).
[12] abbreviates: Postemergence, visual rating about 10 d after treatment, read-out: Ragweed plant response rating (0 to 100 scale).
The mark [13] stands for this setting: Postemergence, 0 to 100 scale (0 no effect, 100 complete control), read-out: Plant response rating, Ragweed.
Setting [14] is: Postemergence, visual rating about 10 d after treatment, read-out: Wheat plant response rating (0 to 100 scale).
Setting [15] is: Postemergence, 0 to 100 scale (0 no effect, 100 complete control), read-out: Plant response rating, Wheat.
Setting [16] is: postemergence, visual injury after approximately 10 d, 0 to 100 scale (0 no effect, 100 complete control), read-out: Plant response rating, Galium.
[17] abbreviates: postemergence, visual injury after approximately 10 d, 0 to 100 scale (0 no effect, 100 complete control), read-out: Plant response rating, Kochia.
The mark [18] stands for this setting: postemergence, visual injury after approximately 10 d, 0 to 100 scale (0 no effect, 100 complete control), read-out: Plant response rating, Blackgrass.
The mark [19] stands for this setting: postemergence, visual injury after approximately 10 d, 0 to 100 scale (0 no effect, 100 complete control), read-out: Plant response rating, Ragweed.
The mark [20] stands for this setting: postemergence, visual injury after approximately 10 d, 0 to 100 scale (0 no effect, 100 complete control), read-out: Plant response rating, Wheat.

The structures appear in SMILES notation. Read-outs that look alike come from different tables or passages of the source.

In the case of `Cc1c(F)cccc1NC(=O)[C@H]1C(=O)NC[C@@H]1c1cccc2c1OC(F)(F)O2` [Compound 1305], the pest or weed control at 125 g/ha (in test [1] (setting [5]); in the test on Kochia (Kochia scoparia) (setting [7]); in test [2] (setting [9]); in test [3] (setting [12])) was 0% each time. Further, the pest or weed control at 500 g/ha (in test [1] (setting [6]); with Kochia (Kochia scoparia) (setting [8]); in test [2] (setting [10]); in test [3] (setting [13])) was 0% each time. The plant injury at 125 g/ha (with corn (Zea mays) (setting [11]); in test [4] (setting [14])) was 0% each time. For the same compound, in the test on corn (Zea mays) (Postemergence), the Corn plant response rating (crop injury, 0 = no effect, 100 = complete kill) at 500 g/ha was 0%. Besides, the plant injury at 500 g/ha in test [4] (setting [15]) is 20%.

For `COc1cc([C@H]2CN(C)C(=O)[C@@H]2C(=O)Nc2ccccc2F)ccc1C(F)(F)F` [Compound 768], the pest or weed control at 125 g/ha was 30% in test [1] (setting [16]), 0% with Kochia (Kochia scoparia) (setting [17]), 0% in test [2] (setting [18]) and 0% in test [3] (setting [19]). In addition, the Corn plant response rating (crop injury, 0 = no effect, 100 = complete kill) at 125 g/ha in the test on corn (Zea mays) (postemergence) was determined as 30%. Besides, the plant injury at 125 g/ha in test [4] (setting [20]) stood at 0%.

Regarding `Cc1c(F)ccc([C@H]2CNC(=O)[C@@H]2C(=O)Nc2ccc(F)cc2F)c1F` [Compound 1328], the pest or weed control at 125 g/ha (in test [1] (setting [5]); with Kochia (Kochia scoparia) (setting [7]); in test [2] (setting [9]); in test [3] (setting [12])) was 0% in each case. Further, the pest or weed control at 500 g/ha in test [1] (setting [6]) was found to be 30%; in the test on Kochia (Kochia scoparia) (setting [8]) it was 0%; in test [2] (setting [10]), 0%; in test [3] (setting [13]) it was 0%. Further, the plant injury at 125 g/ha (in the test with corn (Zea mays) (setting [11]); in test [4] (setting [14])) was 0% throughout. The same compound displayed a Corn plant response rating (crop injury, 0 = no effect, 100 = complete kill) at 500 g/ha with corn (Zea mays) (Postemergence) of 0%. Moreover, in test [4] (setting [15]), the plant injury at 500 g/ha came to 0%.

Consider `CS(=O)(=O)c1ccccc1NC(=O)[C@H]1C(=O)NC[C@@H]1c1ccc2c(c1)CCO2` [Compound 1320], for which the pest or weed control at 125 g/ha is 30% in test [1] (setting [5]), 0% in the test on Kochia (Kochia scoparia) (setting [7]), 0% in test [2] (setting [9]) and 0% in test [3] (setting [12]). The pest or weed control at 500 g/ha in test [1] (setting [6]) came out at 40%; in the test with Kochia (Kochia scoparia) (setting [8]) it was 0%; in test [2] (setting [10]), 0%; in test [3] (setting [13]), 0%. The plant injury at 125 g/ha (in the test with corn (Zea mays) (setting [11]); in test [4] (setting [14])) was 0% in each case. In the test on corn (Zea mays) (Postemergence), the Corn plant response rating (crop injury, 0 = no effect, 100 = complete kill) at 500 g/ha came to 0%. For the same compound, in test [4] (setting [15]), the plant injury at 500 g/ha was found to be 0%.

Turning to `CC(F)(F)c1cccc([C@H]2CNC(=O)[C@@H]2C(=O)Nc2cccc(F)c2F)c1` [Compound 779], the pest or weed control at 125 g/ha was 60% in test [1] (setting [16]), 30% in the test on Kochia (Kochia scoparia) (setting [17]), 70% in test [2] (setting [18]) and 20% in test [3] (setting [19]). This compound yielded a Corn plant response rating (crop injury, 0 = no effect, 100 = complete kill) at 125 g/ha with corn (Zea mays) (postemergence) of 80%. Also, the plant injury at 125 g/ha in test [4] (setting [20]) amounted to 80%.

Turning to `CN1CC[C@H](c2cccc(OC(F)(F)F)c2)[C@@H](C(=O)Nc2cccc(F)c2F)C1=O` [Compound 807], the pest or weed control at 125 g/ha in test [1] (postemergence, visual injury rating after approximately 10 d, read-out: Galium plant response rating (0 to 100 scale, 0 no effect, 100 complete control)) was found to be 0%; in the test with Kochia (Kochia scoparia) (postemergence, visual injury rating after approximately 10 d, read-out: Kochia plant response rating (0 to 100 scale, 0 no effect, 100 complete control)), 0%; in test [2] (postemergence, visual injury rating after approximately 10 d, read-out: Blackgrass plant response rating (0 to 100 scale, 0 no effect, 100 complete control)), 0%; in test [3] (postemergence, visual injury rating after approximately 10 d, read-out: Ragweed plant response rating (0 to 100 scale, 0 no effect, 100 complete control)), 0%. The pest or weed control at 31 g/ha in test [1] (Postemergence, 31 g ai/ha, visual injury after approx. 10 d, 0 to 100 scale, 0 no effect, 100 complete control, read-out: Plant response rating, Galium) was 0%; with Kochia (Kochia scoparia) (Postemergence, 31 g ai/ha, visual injury after approx. 10 d, 0 to 100 scale, 0 no effect, 100 complete control, read-out: Plant response rating, Kochia), 0%; in test [2] (Postemergence, 31 g ai/ha, visual injury after approx. 10 d, 0 to 100 scale, 0 no effect, 100 complete control, read-out: Plant response rating, Blackgrass) it was 0%; in test [3] (Postemergence, 31 g ai/ha, visual injury after approx. 10 d, 0 to 100 scale, 0 no effect, 100 complete control, read-out: Plant response rating, Ragweed) it was 0%. Further, the plant injury at 125 g/ha in the test with corn (Zea mays) (postemergence, visual injury rating after approximately 10 d, read-out: Corn plant response rating (0 to 100 scale, 0 no effect, 100 complete control)) is 70%; in test [4] (postemergence, visual injury rating after approximately 10 d, read-out: Wheat plant response rating (0 to 100 scale, 0 no effect, 100 complete control)), 30%. Further, in the test with corn (Zea mays) (Postemergence, 31 g ai/ha, visual injury after approx. 10 d, 0 to 100 scale, 0 no effect, 100 complete control), the Corn plant response rating (crop injury, 0 = no effect, 100 = complete kill) at 31 g/ha came to 0%. In addition, the plant injury at 31 g/ha in test [4] (Postemergence, 31 g ai/ha, visual injury after approx. 10 d, 0 to 100 scale, 0 no effect, 100 complete control, read-out: Plant response rating, Wheat) worked out at 0%.

For `Cc1ccc([C@H]2CNC(=O)[C@@H]2C(=O)Nc2cccc(F)c2F)s1` [Compound 729], the pest or weed control at 125 g/ha (in test [1] (setting [16]); in the test on Kochia (Kochia scoparia) (setting [17]); in test [2] (setting [18]); in test [3] (setting [19])) was 0% in each case. This compound returned a Corn plant response rating (crop injury, 0 = no effect, 100 = complete kill) at 125 g/ha with corn (Zea mays) (postemergence) of 0%. For the same compound, the plant injury at 125 g/ha in test [4] (setting [20]) came out at 0%.

`CS(=O)(=O)c1ccccc1NC(=O)[C@H]1C(=O)NC[C@@H]1c1cccc2c1OC(F)(F)O2` [Compound 753]: the pest or weed control at 125 g/ha (in test [1] (setting [16]); in the test with Kochia (Kochia scoparia) (setting [17]); in test [2] (setting [18]); in test [3] (setting [19])) was 0% each time. The compound further showed a Corn plant response rating (crop injury, 0 = no effect, 100 = complete kill) at 125 g/ha in the test on corn (Zea mays) (postemergence) of 0%. The plant injury at 125 g/ha in test [4] (setting [20]) was 0%.
